Source: patent publication US20190365745A1, “USE OF CHRONIC TREATMENT WITH ATR INHIBITORS TO SENSITIZE CANCER CELLS TO PARP INHIBITORS” (Cornell University, priority 2018, published 2019)

Key:
Assay type in all cases: cell-based, Human
U2OS cells [1] = test: DR-GFP assay of HR-mediated repair
Procedure: (§1) Human U2OS, HCT116, hTERT RPE-1, HEK293T, HeLa, U87, T98G, A2780, and human skin fibroblast cells (GM08398 and GM18366) were grown in DMEM media supplemented with 10% bovine calf serum, penicillin/streptomycin and non-essential amino acids. SV40 large T antigen transformed hTERT RPE-1 cells were generated by infecting hTERT RPE-1 cells with a SV40 large T antigen (SV40 LT)-expressing retrovirus and were selected using 500 μg/ml G418. The stable SV40 large T antigen transformed hTERT RPE-1 cell line was then maintained in culture media supplemented 500 μg/ml G418. For chronic treatment with ATR inhibitor (ATRi, VE-821) or ATM inhibitor (ATMi, KU-55933), cells were maintained in media with 5 μM ATR or ATM inhibitor respectively for 8 days before cells were subjected to western blot analysis, proteomic analysis, DR-GFP/EJ5-GFP assay or immunofluorescent staining. For CHK1 inhibitor (UCN-01), cells were treated for 5 days with 0.2 μM of inhibitor before the analysis. Primary human fibroblast cells from control subjects (GM08398) and patients with Seckel syndrome (GM18366, ATR-defective) were obtained from Coriell Institute for Medical Research, Camden, N.J.
For the DR-GFP assay, cells (U2OS, HCT116, hTERT RPE-1, HEK293T, HeLa, U87, T98G, A2780, 293-T-REX-E2F6 cells and SV40 large T antigen transformed hTERT RPE-1) were transfected with the mCherry plasmid or DR-GFP reporter plasmid (pDR-GFP; addgene plasmid 26475) together with a plasmid coding for I-SceI (pCBASceI; addgene plasmid 26477) or DR-GFP reporter plasmid together with an empty plasmid pCAGGS. Two days after transfection, cells were trypsinized, resuspended in PBS and then analyzed by flow cytometry using FACSAria Fusion or Accuri C6 cytometer (BD). In each experiment, the percentage of GFP-positive cells from the sample transfected with empty plasmid pCAGGS was subtracted from the percentage of GFP-positive cells in the sample transfected with I-SceI. The GFP percentage was then normalized by the mCherry transfection efficiency. Each graph was plotted based on at least 3 independent experiments showing mean±SEM (N≥3). For the EJ5-GFP assay, EJ5-GFP reporter plasmid (pimEJ5GFP, addgene plasmid 44026) was used instead of DR-GFP reporter plasmid and the assay was performed as described for DR-GFP assay.

U2OS cells [2] = test: Real time PCR of mRNA levels; details: ATRi 5 μM 8 days or CHK1i 0.2 μM 5 days, normalized to GAPDH
Text: FIG. 9B is a bar graph showing the analysis of HR-mediated repair using the DR-GFP system. Relative fold change of GFP positive U2OS cells treated with CHK1i compared to DMSO treatment control. (Error bars=SEM, N=4, ****P-value<0.0001; one sample-t-test was used for the statistical analysis). FIGS. 9C-9D show a histogram showing representative FACS data (FIG. 9C) and a bar graph showing quantitation of G1, S and G2/M population for cell cycle analysis of CHK1i treated cells (FIG. 9D) (Error bars=SD, N=3). FIG. 9E are bar graphs showing real time PCR analysis of total RNA extracted from U2OS cells treated with DMSO, ATRi (5 μM for 8 days) or CHK1i (0.2 μM for 5 days). Values were normalized to GAPDH mRNA levels. (Error bars=SD, N=3). FIG. 9F is a schematic diagram showing a proposed model of how E2F transcription is regulated through ATR-CHK1 signaling. […] FIG. 9H is a bar graph showing DR-GFP analysis of 293-T-REX-E2F6 cells after 8 days of treatment with DMSO or doxycycline. (Error bars=SEM, N=4). FIG. 9I is a histogram showing cell cycle analysis of 293-T-REX-E2F6 cells after 8 days of treatment with DMSO or doxycycline. FIG. 9J is a schematic diagram showing a model depicting multiple roles of ATR in the control of HR capacity.
Cells cultured from 10 cm dish were collected and lysed in 1 ml of TRIzol (Invitrogen). Chloroform was added to the lysed sample to separate RNA. Separated RNA was precipitated by isopropyl alcohol, followed by two washes with 75% ethanol. 1 μg of extracted RNA from each sample was then reverse transcribed with Bio-Rad iScript cDNA synthesis kit. The samples (˜100 ng) were analyzed in a Roche 480 light cycler in a total of 15 μl containing SYBR green mix and primers. The values were calculated using “absolute quantification/2nd derivative max” in lightcycler 480 program and then normalized to the level of GAPDH.

HCT116 cells = test: Western blot after chronic CHK1i; details: chronic CHK1 inhibition
Procedure: (§2) Cells were harvested and lysed in modified radioimmunoprecipitation assay (RIPA) buffer (50 mM Tris-HCl pH 7.5, 150 mM NaCl, 1% tergitol, 0.25% sodium deoxycholate, 5 mM EDTA) supplemented with Complete EDTA-free protease inhibitor cocktail (Roche), 1 mM PMSF, 5 mM sodium fluoride, 10 mM β-glycerol-phosphate and 0.4 mM sodium orthovanadate. Whole cell lysates were cleared with 5 minute centrifugation at 13,000 rpm at 4° C. and mixed with 3×SDS sample buffer (bromophenol blue, stacking gel buffer, 50% glycerol, 3% SDS and 60 mM DTT). After being resolved on SDS-PAGE gels, proteins were then transferred onto polyvinylidene difluoride (PVDF) membranes and detected with designated antibodies.

U2OS cells [3] = test: Cell cycle analysis (propidium iodide, flow cytometry); details: CHK1i 0.2 μM, 5 days
Procedure: Cells were harvested by standard trypsinization and fixed with 70% ethanol. After fixation, cells from each sample were resuspended in PBS, permeabilized using 0.1% Triton X-100 and treated with RNase A (0.8 mg/ml). Then cells were stained with propidium iodide and analyzed by flow cytometry using FACSAria Fusion (BD) or Accuri C6 cytometer (BD) to determine the fraction of cells in different stages of the cell cycle.

U2OS cells [4] = test: Immunoblotting of HR factor abundance; details: CHK1 inhibitor 0.2 μM, 5 days
Procedure: FIG. 5A is a schematic diagram of the SILAC/MS experiment. FIG. 5B is a quadrant diagram of the SILAC/MS experiment. Each dot represents a different identified protein. Proteins with abundance reduced two-fold or more after ATRi treatment are shown in the upper-left corner (white quadrant). FIG. 5C is a WB analysis of U2OS cells after 8 days of chronic treatment with 5 μM of ATRi or ATMi. FIG. 5D is a time course WB analysis of U2OS cells during chronic treatment with 5 μM ATRi. FIG. 5E is a WB analysis of U2OS cells at distinct cell cycle stages. Cells were treated with 1 mM hydroxyurea (HU) or 50 ng/ml nocodazole (Noc) for 24 hours. HU treated cells were released for 2.5 hours in HU-free media. FIG. 5F is a WB analysis of U2OS cells untreated or treated for 8 days with 5 μM ATRi.
as §1, §2

Q: For O=c1cc(-c2cccc3c2Sc2ccccc2S3)oc(N2CCOCC2)c1 [ATMi, KU-55933], which “HR-mediated repair efficiency (DR-GFP, GFP positive cells over DMSO)” value (U2OS cells [1]; 5 μM, chronic 8 days) is on record?
A: did not result in major changes in HR-mediated repair efficiency

Q: What does the source list for CN[C@@H]1C[C@H]2O[C@@](C)([C@@H]1OC)n1c3ccccc3c3c4c(c5c6ccccc6n2c5c31)C(=O)N[C@@H]4O [CHK1i, UCN-01]?
A: HR efficiency (DR-GFP) (U2OS cells [1]; CHK1i 0.2 μM, 5 days): sharp decrease in HR efficiency; mRNA levels of BRCA1 and RAD51 (U2OS cells [2]): reduction in the mRNA levels of BRCA1 and RAD51; Level of E2F1 and abundance of other HR proteins (WB) (HCT116 cells): did not lower the level of E2F1 nor the abundance of other HR proteins; Relative number of S phase cells (U2OS cells [3]): increase in the relative number of S phase cells; Abundance of BRCA1, RAD51, RRM2 and E2F1 (WB) (U2OS cells [4]): severely reduced
